Results as given in US20140350111A1, “METHODS FOR TREATMENT AND PROPHYLAXIS AGAINST HEMORRHOIDS” (priority 2011, published 2014).
Where two headings read alike, the source gives them in different places.

Experiments:
[1] = three individuals; 660 mg at first noticeable symptom, then 440 mg three times daily at six-hour intervals
Method: After completing treatment in Example 1, three of the individuals at risk for hemorrhoids were treated at the onset of hemorrhoid symptoms to determine whether naproxen could halt or reverse the progression of the hemorrhoid symptoms.

[2] = one individual; 220 mg every day

COc1ccc2cc([C@H](C)C(=O)O)ccc2c1 [naproxen sodium]
hemorrhoid symptoms after treatment, as reported by individuals (440 mg three times daily at six-hour intervals, the one remaining individual): significant improvement in symptoms
hemorrhoid symptoms after treatment, as reported by individuals (five individuals, 440 mg three times daily at six-hour intervals until symptoms abated, all treated individuals except one): complete lack of hemorrhoid symptoms after treatment
progression of emerging hemorrhoid symptoms [1]: symptoms did not worsen
time to complete disappearance of all symptoms of hemorrhoids from commencement of treatment [1]: 12 to 24 h
occurrence of emerging hemorrhoid symptoms under prophylaxis [2]: has not experienced any emerging hemorrhoid symptoms
